Results: PubChem BioAssay AID489032 (Sanford-Burnham Center for Chemical Genomics, 2010)
Activity calls are given as the source filed them. No rule for the calls is given here.

The compounds below were run on UPR adaptive arm reporter cells, luciferase luminescence (assay: activators of adaptive UPR signalling, dose response, cell-based, luciferase luminescence (AID 489032)).
With `CCC1(c2ccc(F)cc2)NC(=O)N(CC(=O)Nc2ccc(-c3nc4ccc(C)cc4s3)cc2)C1=O` (configuration not stated) the EC50 was > 80 µM (inactive).
`C/C(Cl)=C\Cn1c(O)c(N=NC(N)=S)c2cc(Br)ccc21` gave an EC50 of 4.06 µM.
`COc1ccc(C(=O)/C=C/c2ccc(O)cc2)c(O)c1C/C=C(\C)CCC=C(C)C` was tested, and the EC50 was > 80 µM (inactive).
In the case of `Cc1ccc2nc(-c3ccc(NC(=S)NC4CC(C)(C)NC(C)(C)C4)cc3)sc2c1`, the EC50 is reported as > 80 µM (inactive).
In the case of `N#Cc1ccc(N/N=C/c2cn(-c3ccccc3)nc2-c2ccccc2)c([N+](=O)[O-])c1`, the EC50 is reported as > 80 µM (inactive).
With `NC(=S)N/N=C/c1ccc(C23CC4CC(CC(C4)C2)C3)cc1` the EC50 was 40 µM (inactive).
With `CC(C)(C)C(=O)NC(=S)NNC(=O)c1sc2ccccc2c1Cl` the EC50 was > 80 µM (inactive).
In the case of `O=C(Nc1ccc(NC(=O)c2sc3ccccc3c2Cl)cc1Cl)c1ccco1`, the EC50 is reported as 22 µM (inactive).
`O=c1[nH]c(-c2ccc(-c3cccc(Cl)c3)o2)nc2ccccc12` was tested, and the EC50 was 13.7 µM.
With `CC(C)(C)c1ccc(C(=O)Nc2ccc(O)c3c(=O)cc(-c4cccc(Cl)c4)oc23)cc1` the EC50 was > 80 µM (inactive).
`COc1ccc(-c2csc(NC(=S)NC(=O)/C=C/c3ccccc3)n2)cc1Br` showed an EC50 of 13.2 µM.
For `CCc1ccc(N2C(=O)NC(=O)/C(=C\c3cccn3CCOc3ccc(C(C)C)cc3)C2=O)cc1`, the EC50 was > 80 µM (inactive).
In the case of `CN1Cc2c(N3CCOCC3)nc3sc(C(=O)c4ccc(Br)cc4)c(N)c3c2CC1(C)C`, the EC50 is reported as > 80 µM (inactive).
With `Cc1ccc(-c2nnc(-c3ccc(NC(=O)Cc4cccs4)cc3)o2)cc1` the EC50 was > 80 µM (inactive).
In the case of `C/C(=N/NC(=O)c1ccc(C)s1)c1cccc(NC(=O)COc2ccc(Cl)cc2C)c1`, the EC50 is reported as 72.4 µM (inactive).
`O=[N+]([O-])c1ccc(Cl)c(-c2ccc(/C=N/c3c(-c4ccco4)nc4ccccn34)o2)c1` was tested, and the EC50 was 39.3 µM (inactive).
For `COc1c(Cl)cc(Cl)cc1/C=N/NC(=O)c1nnn(-c2nonc2N)c1CN1CCC(C)CC1`, the EC50 was 50 µM (inactive).
In the case of `Cc1cccc(Nc2nc3c(S(=O)(=O)c4ccccc4)nnn3c3ccccc23)c1C`, the EC50 is reported as 50.2 µM (inactive).
`COc1ccc(-c2cc(C(F)F)n3ncc(C(=O)Nc4ccc(C(=O)N5CCOCC5)cc4)c3n2)cc1` was tested, and the EC50 was > 80 µM (inactive).
In the case of `Cc1ccc(C)c(N=Cc2c(O)c3ccccc3oc2=O)c1`, the EC50 is reported as 37.1 µM (inactive).
In the case of `CCCCCCCCCn1c2c(c(=N)c3c1CCC3)CCCC2`, the EC50 is reported as 25.6 µM (inactive).
`CCOc1cc(/C=N/N=C(/N)c2nonc2N)cc(Br)c1OCc1ccc(Cl)cc1` was tested, and the EC50 was > 80 µM (inactive).
With `COc1cccc(/C=N/Nc2ccc([N+](=O)[O-])cn2)c1O` the EC50 was > 80 µM (inactive).
For `OCCCn1c(C2CCCN2c2nc(-c3ccc(F)cc3)cs2)nc2cc(Cl)c(N3CCCCC3)cc21` (configuration not stated), the EC50 was > 80 µM (inactive).
For `Cc1ccc2c(c1)C(=O)C(=O)N2Cc1ccc(C(F)(F)F)cc1`, the EC50 was 27.5 µM (inactive).
`CCCCCCCCCCOC(=O)Cn1c(COc2ccc(C)cc2)[n+](C)c2ccccc21` was tested, and the EC50 was > 80 µM (inactive).
In the case of `Cc1cc(NC(=O)/C(C#N)=C/c2ccc(-c3ccc(SC(F)F)cc3)o2)n(-c2ccccc2)n1`, the EC50 is reported as > 80 µM (inactive).
In the case of `Cc1cc(-n2c(SCC(=O)Nc3ccc(F)c(F)c3)nc3n[nH]c(C)c3c2=N)ccc1Cl`, the EC50 is reported as > 80 µM (inactive).
`Oc1ccc(Br)cc1/C=N/Nc1ccccn1` was tested, and the EC50 was > 80 µM (inactive).
`OC(CNCC1CCCO1)Cn1c2ccc(Cl)cc2c2cc(Cl)ccc21` (configuration not stated) was tested, and the EC50 was > 80 µM (inactive).
With `CCN(CC)c1ccc(N=Cc2c(O)n(Cc3ccccc3)c(=O)[nH]c2=O)cc1` the EC50 was 62.5 µM (inactive).
With `Cc1ccc(NC(=O)c2nc[nH]c2C(=O)NCCCNC(=O)c2[nH]cnc2C(=O)Nc2ccc(C)cc2)cc1` the EC50 was > 80 µM (inactive).
In the case of `O=C(NCc1ccccc1Cl)c1cccc2c1C(=O)c1ccc(-c3ccc(OC(F)(F)F)cc3)cc1S2(=O)=O`, the EC50 is reported as > 80 µM (inactive).
`Cc1ccc2nc(Nc3nc(-c4ccccc4)cc(=O)[nH]3)nc(C)c2c1` gave an EC50 of 19.3 µM.
`O=C(Nc1nc2ccccc2s1)c1cc2c(s1)-c1ccccc1OC2` was tested, and the EC50 was 44.9 µM (inactive).
With `CCOc1cc2c3c(c1)C(C)=CC(C)(C)N3C(=O)C2=O` the EC50 was 54.6 µM (inactive).
In the case of `Oc1ccc(/C=N/Nc2nc(N3CCCC3)nc(N3CCCC3)n2)cc1O`, the EC50 is reported as > 80 µM (inactive).
With `COc1ccc(/C=C/c2nc3cc(-c4ccccc4)ccc3o2)cc1O` the EC50 was > 80 µM (inactive).
With `CCc1nc(N=Nc2c(O)[nH]c3ccccc23)c2c3c(sc2n1)CCC3` the EC50 was 16.1 µM.
`CCOc1cc(/C=C(\C#N)c2[nH]nc(N)c2C#N)ccc1O` was tested, and the EC50 was > 80 µM (inactive).
With `COc1ccccc1-c1cc(-c2ccccc2)nc(SC(C(N)=O)c2ccccc2)c1C#N` (configuration not stated) the EC50 was 71.2 µM (inactive).
`COc1cc(C(=O)Nc2cc(-c3nc4cc(C)ccc4o3)ccc2C)cc(OC)c1OC` was tested, and the EC50 was > 80 µM (inactive).
In the case of `CCC(=O)Nc1cccc(C(=O)/C=C/c2ccc(F)cc2)c1`, the EC50 is reported as > 80 µM (inactive).
In the case of `CC(=O)c1cccc(Nc2nc(-c3cccc([N+](=O)[O-])c3)cs2)c1`, the EC50 is reported as > 80 µM (inactive).
In the case of `O=C(Nc1nc(-c2ccc(F)c(F)c2)cs1)Nc1ccc(F)cc1F`, the EC50 is reported as 37.2 µM (inactive).
In the case of `O=C(NCC1CCCO1)c1nn2c(C(F)(F)F)cc(-c3cc(Br)cs3)nc2c1Br` (configuration not stated), the EC50 is reported as > 80 µM (inactive).
`Cc1nn(Cc2c(Cl)cccc2Cl)c(C)c1NC(=O)c1sc2ccccc2c1Cl` was tested, and the EC50 was 29.8 µM (inactive).
With `O=C(C[C@H]1C[C@H](C(=O)N2CCCCC2)[C@@]2(CCc3ccccc3)c3[nH]c4ccc(Cl)cc4c3CCN2C1=O)NCCC1=CCCCC1` the EC50 was > 80 µM (inactive).
For `COc1ccc(NC(=O)c2sc3nc(N4CCOCC4)c4c(c3c2N)CC(C)(C)OC4)c(OC)c1`, the EC50 was > 80 µM (inactive).
In the case of `CCCCCCCCCCOC(=O)Cn1c(COc2ccccc2C)[n+](C)c2ccccc21`, the EC50 is reported as > 80 µM (inactive).
With `COc1ccccc1NC(=O)c1cc2c(CO)cnc(C)c2oc1=Nc1ccccc1` the EC50 was 25.7 µM (inactive).
`COc1ccc(/C=N/Nc2nnc(-c3ccccc3)c(=O)[nH]2)cc1` gave an EC50 of 19.8 µM.
For `O=[N+]([O-])c1ccc(N/N=C/c2ccc(OCc3cccc4ccccc34)cc2)nc1`, the EC50 was > 80 µM (inactive).
For `Cc1ccc(Cn2c(C(C)Nc3nc(-c4ccc(F)cc4)cs3)nc3cc(Cl)c(Cl)cc32)cc1` (configuration not stated), the EC50 was > 80 µM (inactive).
`Cc1ccc2c(c1)C(=O)C(=O)N2Cc1ccc(Br)cc1` was tested, and the EC50 was 59.8 µM (inactive).
In the case of `COc1ccc2cc1Oc1ccc(cc1)CC1c3c(cc(OC)c4c3Oc3cc5c(cc3O4)CCNC5C2)CCN1C` (configuration not stated), the EC50 is reported as > 80 µM (inactive).
`CC1CCc2c(sc(NC(=O)CCc3nc4ccccc4c(=O)[nH]3)c2C#N)C1` (configuration not stated) was tested, and the EC50 was 30.3 µM (inactive).
In the case of `O=C(CSc1nc2ccc(Nc3nc(N4CCOCC4)nc(N4CCOCC4)n3)cc2s1)Nc1ccccc1F`, the EC50 is reported as 11.7 µM.
`O=C(Cc1ccccc1)c1c[nH]c(C(=O)C(Cl)(Cl)Cl)c1` was tested, and the EC50 was > 80 µM (inactive).
In the case of `Cc1cc(NC(=O)CSc2nc3cc(Cl)ccc3c(=O)n2Cc2ccco2)no1`, the EC50 is reported as > 80 µM (inactive).
`Cc1ccc(F)cc1N=Cc1c(O)c2ccccc2oc1=O` was tested, and the EC50 was 10.1 µM.
In the case of `CCOc1ccc(NC(=S)NC(=O)/C=C/c2ccc(C)cc2)c([N+](=O)[O-])c1`, the EC50 is reported as > 80 µM (inactive).
Compound `O=c1cc(C(Cl)(Cl)Cl)oc2c1ccc1ccccc12` has an EC50 of 18.1 µM.
For `O=C(N/N=C/c1ccc(Cl)cc1)c1sccc1OCc1ccc(F)cc1`, the EC50 was 49.3 µM (inactive).
In the case of `Cc1c(NC(=O)CSc2ccc(Cl)cc2)cccc1-c1nc2cc(Cl)ccc2o1`, the EC50 is reported as > 80 µM (inactive).
`Cc1ccc(-c2nnn(CC(=O)N(Cc3cccs3)C(C(=O)NC3CCCCC3)c3ccco3)n2)o1` (configuration not stated) was tested, and the EC50 was > 80 µM (inactive).
`N#Cc1ccc(-c2ccc(Cl)cc2)nc1SCC(=O)c1cccc(Cl)c1` was tested, and the EC50 was 11 µM.
For `COc1cc(-c2ccc3oc(-c4ccsc4)cc3c2)cc(OC)c1OC`, the EC50 was > 80 µM (inactive).
In the case of `COc1cc(/C=C/c2ccc3cccc(O)c3n2)ccc1O`, the EC50 is reported as > 80 µM (inactive).
With `Oc1cccc(-c2nc3c4c(ncn3n2)-c2ccccc2CC42CCCC2)c1` the EC50 was > 80 µM (inactive).
For `Cc1ccccc1OCc1nc(-c2ccc(NC(=O)c3ccc4c(c3)OCO4)cc2)no1`, the EC50 was > 80 µM (inactive).
In the case of `Cc1cc(C)c2sc(N(CCCN(C)C)C(=O)c3ccc(S(=O)(=O)N4CCCc5ccccc54)cc3)nc2c1`, the EC50 is reported as > 80 µM (inactive).
With `COc1ccc2nc(/C(C#N)=C\c3ccc(Oc4ccc([N+](=O)[O-])cn4)cc3)[nH]c2c1` the EC50 was > 80 µM (inactive).
In the case of `Cc1nn(Cc2ccccc2)c(C)c1NC(=O)CSc1nc(C2CC2)nc2c1cnn2-c1ccccc1`, the EC50 is reported as 47.2 µM (inactive).
For `COc1cccc(-c2c(-c3cc(OC)cc(OC)c3)n(C)c3ccc(-c4cnc(N5CCOCC5)nc4)cc23)c1`, the EC50 was 54.9 µM (inactive).
For `Oc1cc(-c2cccnc2)cc2cccnc12`, the EC50 was > 80 µM (inactive).
For `FC(F)(F)c1nc2ccccc2n2c(-c3ccc(Cl)cc3)nnc12`, the EC50 was > 80 µM (inactive).
